The values below come from PubChem BioAssay AID248 (DTP/NCI, 2004).

For the assay, the system named is L1210 leukemia ip in BDF1 mice, survival T/C. Put plainly: NCI In Vivo Anticancer Drug Screen. Data for tumor model L1210 Leukemia (intraperitoneal) in B6D2F1 (BDF1) mice. The following applies: endpoint: mean survival time, higher = longer survival. The gist of the method: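 Survival endpoint. Drug-treated group vs vehicle group, expressed as T divided by C. Tumor passaged by transplantation.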

Where [1] appears, read: dose: 100.0 mg/kg/injection, schedule: Q01DX009 (ip), vehicle: saline with Tween-80.
Setting [2] is: dose: 200.0 mg/kg/injection, schedule: Q01DX009 (ip), vehicle: saline with Tween-80.
Where [3] appears, read: dose: 400.0 mg/kg/injection, schedule: Q01DX009 (ip), vehicle: saline with Tween-80.
Setting [4] is: dose: 100.0 mg/kg/injection, schedule: Q01DX009 (ip), vehicle: Klucel (hydroxypropylcellulose) (HPC).
[5] abbreviates: dose: 200.0 mg/kg/injection, schedule: Q01DX009 (ip), vehicle: Klucel (hydroxypropylcellulose) (HPC).
Where [6] appears, read: dose: 400.0 mg/kg/injection, schedule: Q01DX009 (ip), vehicle: Klucel (hydroxypropylcellulose) (HPC).
[7] abbreviates: dose: 100.0 mg/kg/injection, schedule: Q01DX001 (ip), vehicle: other.
The mark [8] stands for this setting: dose: 200.0 mg/kg/injection, schedule: Q01DX001 (ip), vehicle: other.
The mark [9] stands for this setting: dose: 400.0 mg/kg/injection, schedule: Q01DX001 (ip), vehicle: other.
[10] abbreviates: dose: 100.0 mg/kg/injection, schedule: Q01DX001 (ip), vehicle: saline with Tween-80.
Where [11] appears, read: dose: 200.0 mg/kg/injection, schedule: Q01DX001 (ip), vehicle: saline with Tween-80.
The mark [12] stands for this setting: dose: 400.0 mg/kg/injection, schedule: Q01DX001 (ip), vehicle: saline with Tween-80.

Where “and” joins values, the source holds several entries; their conditions need not be identical. Identical values can stand only once. Inconclusive results and toxic doses are left out.

For `CNC(=O)c1ccc(NC(=O)Nc2ccc(C3=NCCN3)cc2)cc1NC(=O)Nc1ccc(C2=NCCN2)cc1`, the T/C was 96 % of control (dose: 2.0 mg/kg/injection, schedule: Q01DX Z (ip), vehicle: carboxymethylcellulose (CMC)); 112 % of control (dose: 4.0 mg/kg/injection, schedule: Q01DX Z (ip), vehicle: carboxymethylcellulose (CMC)); 209 % of control and 351 % of control (dose: 17.0 mg/kg/injection, schedule: Q01DX Z (ip), vehicle: carboxymethylcellulose (CMC)); 287 % of control (dose: 27.0 mg/kg/injection, schedule: Q01DX Z (ip), vehicle: carboxymethylcellulose (CMC)); 239 % of control and 295 % of control (dose: 34.0 mg/kg/injection, schedule: Q01DX Z (ip), vehicle: carboxymethylcellulose (CMC)); 209 % of control (dose: 51.0 mg/kg/injection, schedule: Q01DX Z (ip), vehicle: carboxymethylcellulose (CMC)). The T/C (dose: 62.0 mg/kg/injection, schedule: Q01DX Z (oral), vehicle: carboxymethylcellulose (CMC)) was 104 % of control; the T/C (dose: 68.0 mg/kg/injection, schedule: Q01DX Z (ip), vehicle: carboxymethylcellulose (CMC)) is 152 % of control; the T/C (dose: 125.0 mg/kg/injection, schedule: Q01DX Z (oral), vehicle: carboxymethylcellulose (CMC)) was 105 % of control; the T/C (dose: 250.0 mg/kg/injection, schedule: Q01DX Z (oral), vehicle: carboxymethylcellulose (CMC)) was 102 % of control; the T/C (dose: 500.0 mg/kg/injection, schedule: Q01DX Z (oral), vehicle: carboxymethylcellulose (CMC)) was 102 % of control.
As to `O=S(=O)(N=S(CCCl)CCCl)c1ccccc1`, the T/C is 111 % of control (dose: 100.0 mg/kg/injection, schedule: Q04DX002 (ip), vehicle: Klucel (hydroxypropylcellulose) (HPC)) and 111 % of control (dose: 200.0 mg/kg/injection, schedule: Q04DX002 (ip), vehicle: Klucel (hydroxypropylcellulose) (HPC)).
Consider `CN(C)CCNCc1ccccc1`, for which the T/C is, setting by setting: (dose: 44.4 mg/kg/injection, schedule: Q01DX001 (ip), vehicle: saline) 95 % of control and 98 % of control; (dose: 66.7 mg/kg/injection, schedule: Q01DX001 (ip), vehicle: saline) 96 % of control and 102 % of control; (dose: 75.0 mg/kg/injection, schedule: Q01DX001 (ip), vehicle: saline) 98 % of control; (dose: 150.0 mg/kg/injection, schedule: Q01DX001 (ip), vehicle: saline) 91 % of control and 94 % of control; (dose: 300.0 mg/kg/injection, schedule: Q01DX001 (ip), vehicle: saline) 95 % of control.
For `CCOP(=S)(NCCOC)OCC`, the T/C under setting [1] is 97 % of control, the T/C under setting [2] is 94 % of control and the T/C under setting [3] is 95 % of control.
In the case of `CCCCCCCCCCCCCCOC(=O)Cl`, the T/C under setting [4] was 101 % of control, the T/C under setting [5] was 97 % of control and the T/C under setting [6] was 86 % of control.
`CCOc1ccccc1/C=C(\C#N)c1cccc(Cl)c1`: the T/C by setting is: (dose: 100.0 mg/kg/injection, schedule: Q01DX009 (ip), vehicle: other) 87 % of control; (dose: 200.0 mg/kg/injection, schedule: Q01DX009 (ip), vehicle: other) 88 % of control.
For the compound `CCn1cc(C(=O)O)c(=O)c2cc3c(cc21)OCO3`, the T/C was 96 % of control under setting [7], 108 % of control under setting [8] and 98 % of control under setting [9].
Regarding `COc1ccc(N=Nc2ccccn2)cc1`, the T/C is, setting by setting: (dose: 50.0 mg/kg/injection, schedule: Q01DX001 (ip), vehicle: Klucel (hydroxypropylcellulose) (HPC)) 103 % of control; (dose: 100.0 mg/kg/injection, schedule: Q01DX001 (ip), vehicle: Klucel (hydroxypropylcellulose) (HPC)) 105 % of control; (dose: 200.0 mg/kg/injection, schedule: Q01DX001 (ip), vehicle: Klucel (hydroxypropylcellulose) (HPC)) 103 % of control.
`O=C(NCc1ccco1)Nc1ccc(Cl)cc1`: the T/C is 101 % of control under setting [10], 96 % of control under setting [11] and 108 % of control under setting [12].
As to `Cn1c(=O)cc(CC(=O)O)c2ccccc21`, the T/C reads like this: under setting [7], 95 % of control; under setting [8], 95 % of control; under setting [9], 98 % of control.
For the compound `CCCCCCCCCCC[n+]1cccc(C#N)c1`, the T/C (dose: 5.0 mg/kg/injection, schedule: Q01DX009 (ip), vehicle: saline) was 101 % of control; the T/C (dose: 10.0 mg/kg/injection, schedule: Q01DX001 (ip), vehicle: saline) is 94 % of control; the T/C (dose: 10.0 mg/kg/injection, schedule: Q01DX009 (ip), vehicle: saline) is 93 % of control; the T/C (dose: 10.0 mg/kg/injection, schedule: Q04DX003 (ip), vehicle: saline) was 98 % of control; the T/C (dose: 20.0 mg/kg/injection, schedule: Q01DX001 (ip), vehicle: saline) is 101 % of control; the T/C (dose: 20.0 mg/kg/injection, schedule: Q01DX009 (ip), vehicle: saline) is 95 % of control. In addition, the T/C is 93 % of control (dose: 20.0 mg/kg/injection, schedule: Q04DX003 (ip), vehicle: saline); 108 % of control (dose: 40.0 mg/kg/injection, schedule: Q01DX001 (ip), vehicle: saline); 95 % of control (dose: 40.0 mg/kg/injection, schedule: Q04DX003 (ip), vehicle: saline).
In the case of `c1ccc(CNCc2ccccn2)nc1`, the T/C by setting is: (dose: 50.0 mg/kg/injection, schedule: Q04DX002 (ip), vehicle: saline) 95 % of control; (dose: 100.0 mg/kg/injection, schedule: Q04DX002 (ip), vehicle: saline) 101 % of control.
In the case of `CCOC(=O)c1ccc(N2C(=O)c3cccc4cccc(c34)C2=O)cc1`, the T/C by setting is: under setting [1], 95 % of control; (dose: 100.0 mg/kg/injection, schedule: Q04DX003 (ip), vehicle: saline with Tween-80) 103 % of control; under setting [2], 89 % of control; (dose: 200.0 mg/kg/injection, schedule: Q04DX003 (ip), vehicle: saline with Tween-80) 98 % of control; under setting [3], 89 % of control; (dose: 400.0 mg/kg/injection, schedule: Q04DX003 (ip), vehicle: saline with Tween-80) 95 % of control.
`O=C(COc1ccc(Cl)cc1)Nc1ccc(Br)cc1`: the T/C reads like this: (dose: 100.0 mg/kg/injection, schedule: Q04DX002 (ip), vehicle: gum acacia) 97 % of control; (dose: 200.0 mg/kg/injection, schedule: Q04DX002 (ip), vehicle: gum acacia) 106 % of control; (dose: 400.0 mg/kg/injection, schedule: Q04DX002 (ip), vehicle: gum acacia) 95 % of control.
For the compound `Cc1ccc(NC(=S)NCCc2ccccn2)cc1C`, the T/C was 96 % of control under setting [4], 99 % of control under setting [5] and 91 % of control under setting [6].
As for `COc1ccc2c(c1)CN(C)CC2`, where the note is “dose: 75.0 mg/kg/injection, schedule: Q01DX001 (ip), vehicle: other”, the T/C is 108 % of control.
Regarding `CC1(C)CN1P(=S)(N1CC1(C)C)N1CC1(C)C` (stereo unspecified), the T/C is 98 % of control (dose: 12.5 mg/kg/injection, schedule: Q01DX009 (ip), vehicle: saline); 109 % of control (dose: 14.0 mg/kg/injection, schedule: Q01DX009 (ip), vehicle: saline); 112 % of control (dose: 22.0 mg/kg/injection, schedule: Q01DX009 (ip), vehicle: saline); 94 % of control (dose: 25.0 mg/kg/injection, schedule: Q01DX009 (ip), vehicle: saline); 152 % of control (dose: 33.0 mg/kg/injection, schedule: Q01DX009 (ip), vehicle: saline); 121 % of control (dose: 44.0 mg/kg/injection, schedule: Q01DX001 (ip), vehicle: other). Besides, the T/C reads like this: (dose: 100.0 mg/kg/injection, schedule: Q01DX001 (ip), vehicle: carboxymethylcellulose (CMC)) 166 % of control and 169 % of control; under setting [7], 153 % of control; (dose: 150.0 mg/kg/injection, schedule: Q01DX001 (ip), vehicle: other) 158 % of control; (dose: 200.0 mg/kg/injection, schedule: Q01DX001 (ip), vehicle: carboxymethylcellulose (CMC)) 164 % of control; (dose: 200.0 mg/kg/injection, schedule: Q01DX009 (ip), vehicle: saline) 120 % of control.
In the case of `O=C(O)c1c(F)c(F)c(-c2c(F)c(F)c(C(=O)O)c(F)c2F)c(F)c1F`, the T/C is, setting by setting: under setting [10], 93 % of control; under setting [11], 95 % of control; under setting [12], 93 % of control.
